Molecules are shown by their SMILES. pIC50: −log10 of the molar value.

One assay has as its system Saccharomyces cerevisiae. In words: Inhibition of Saccharomyces cerevisiae alpha-glucosidase at 200 ug/mL using p-nitrophenyl alpha-D-glucoside as substrate by colorimetric assay.
Assay [1] is described as follows: Inhibition of Saccharomyces cerevisiae alpha-glucosidase using p-nitrophenyl alpha-D-glucoside as substrate by colorimetric assay.

Turning to `O=C(OCc1ccccc1O)c1ccccc1`, the inhibition (in general, the change of the read-out against control, counted positive when it falls) with Saccharomyces cerevisiae came out at 97.5%. The pIC50 (commonly the IC50 on a negative log10 scale, so that one unit is a factor of ten) in assay [1] was 5.37. Turning to `COc1cc(O)c2c(=O)cc(-c3ccccc3)oc2c1` [TECHTOCHRYSIN], the inhibition in the assay on Saccharomyces cerevisiae is 90.9%. Besides, the pIC50 in assay [1] was 3.80. The corresponding values for `CC(=O)O[C@@H]1C=COC=C(CO)C1=O` are 92.1% and 5.31. In the assay on Saccharomyces cerevisiae, `CC(=O)O[C@H]1C(=O)C=COC=C1COC(=O)c1ccccc1` [GRANDIUVARONE A] showed an inhibition of 98.2%. The molecule also had a negative logarithm of the IC50 (pIC50) in assay [1] of 5.51.

Regarding `O=c1cc(-c2ccccc2)oc2c(Cc3cccc(O)c3O)c(O)cc(O)c12`, the inhibition in the assay with Saccharomyces cerevisiae stood at 96.1%. In assay [1], this molecule showed a pIC50 of 6.05. With `O=c1cc(-c2ccccc2)oc2c(Cc3cc(O)ccc3O)c(O)cc(O)c12`, the inhibition in the assay with Saccharomyces cerevisiae came out at 95.8%. This molecule also gave a pIC50 in assay [1] of 6.05. The molecule `O=C1C[C@@H](c2ccccc2)Oc2c(Cc3ccccc3O)c(O)c(Cc3ccccc3O)c(O)c21` [DICHAMANETIN] returned an inhibition in the assay on Saccharomyces cerevisiae of 99.1%. In assay [1], this molecule had a pIC50 of 6.70. With `C[C@H]1O[C@H](O[C@H]2[C@H](O)[C@@H](O)[C@@H](O[C@H]3[C@H](O)[C@@H](O)C(O)O[C@@H]3CO)O[C@@H]2CO)[C@H](O)[C@@H](O)[C@@H]1N[C@H]1C=C(CO)[C@@H](O)[C@H](O)[C@H]1O` (some centres undefined) [ACARBOSE], the pIC50 in assay [1] is 3.77. Regarding `O=c1cc(-c2ccccc2)oc2cc(O)cc(O)c12` [CHRYSIN], the inhibition in the assay with Saccharomyces cerevisiae is 95.4%. The molecule also gave a pIC50 in assay [1] of 5.31.

In the assay with Saccharomyces cerevisiae, `CC(=O)OC/C=C\C=C(/COC(C)=O)COC(=O)c1ccccc1` registered an inhibition of 99.1%. The negative-log IC50 (pIC50) in assay [1] was 4.39.

Molecule `O=C1C[C@@H](c2ccccc2)Oc2cc(O)cc(O)c21` [PINOCEMBRIN] showed an inhibition in the assay with Saccharomyces cerevisiae of 97.7%. Moreover, the pIC50 in assay [1] is 5.37. With `O=C(OC[C@@]1(O)C(=O)C=C[C@@H](OC(=O)c2ccccc2)[C@@H]1O)c1ccccc1`, the inhibition in the assay with Saccharomyces cerevisiae is 98.7%. The negative logarithm of the IC50 (pIC50) in assay [1] was 4.14. In the assay with Saccharomyces cerevisiae, `CC(=O)O[C@@H]1C=COC=C(COC(=O)c2ccccc2)C1=O` gave an inhibition of 95.5%. In assay [1], the pIC50 is 5.44. Turning to `O=C1C[C@@H](c2ccccc2)Oc2cc(O)c(Cc3ccccc3O)c(O)c21` [ISOCHAMANETIN], the inhibition in the assay with Saccharomyces cerevisiae was determined as 93.2%. Further, in assay [1], the pIC50 was 5.54.

`CC(=O)OC/C=C\C=C(/CO)COC(=O)c1ccccc1` had an inhibition in the assay on Saccharomyces cerevisiae of 94%. The same molecule gave a pIC50 in assay [1] of 3.86.

The values are drawn from ChEMBL document CHEMBL4422694, “α-Glucosidase Inhibitory Flavonoids and Oxepinones from the Leaf and Twig Extracts of Desmos cochinchinensis” (J Nat Prod, 2019).
